# Assay results as given in publication PMC5808360, “Neutral Porphyrin Derivative Exerts Anticancer Activity by Targeting Cellular Topoisomerase I (Top1) and Promotes Apoptotic Cell Death without Stabilizing Top1-DNA Cleavage Complexes” (Journal of Medicinal Chemistry, 2017).
# Like-named read-outs stand apart in the source and are kept apart here.
# Columns and labels:
# [1] = test system: MCF7 cells transfected with Top1 or Ctr siRNA; test: Cell survival (MTT) assay in MCF7 cells transfected with Top1 or control siRNA; assay type: cell-based, human
# Method: To further confirm that Top1 is the cellular target for compound 8 mediated cytotoxicity, we have performed cytotoxicity assays in siRNA mediated Top1 knockdown cells (Figure 6G, inset).
# (§1) Cell survival was assessed by 3-(4,5-dimethylthiazol-2-yl)-2,5-diphenyltetrazolium bromide (MTT) assay as discussed previously.[6] The percent inhibition of viability for each concentration of the compounds was calculated with respect to the control, and IC50 values were estimated.
# Transfections were performed as described previously.[40] In brief, cells (1.5 × 10^5) were transfected with control siRNA or 40 nM Top1 siRNA (Qiagen) using oligofectamine (Invitrogen) according to the manufacturer’s protocol.
# [2] = target: T1, cellular Top1 in MCF7 cells (Homo sapiens, UniProt P11387); test: Western blot of Top1 in whole cell extracts of treated MCF7 cells; assay type: cell-based; conditions: 10 μM, indicated times
# T1 construct: endogenous in cells; host or cells: MCF7 cells
# T1 sequence (P11387 2-765 limits assumed): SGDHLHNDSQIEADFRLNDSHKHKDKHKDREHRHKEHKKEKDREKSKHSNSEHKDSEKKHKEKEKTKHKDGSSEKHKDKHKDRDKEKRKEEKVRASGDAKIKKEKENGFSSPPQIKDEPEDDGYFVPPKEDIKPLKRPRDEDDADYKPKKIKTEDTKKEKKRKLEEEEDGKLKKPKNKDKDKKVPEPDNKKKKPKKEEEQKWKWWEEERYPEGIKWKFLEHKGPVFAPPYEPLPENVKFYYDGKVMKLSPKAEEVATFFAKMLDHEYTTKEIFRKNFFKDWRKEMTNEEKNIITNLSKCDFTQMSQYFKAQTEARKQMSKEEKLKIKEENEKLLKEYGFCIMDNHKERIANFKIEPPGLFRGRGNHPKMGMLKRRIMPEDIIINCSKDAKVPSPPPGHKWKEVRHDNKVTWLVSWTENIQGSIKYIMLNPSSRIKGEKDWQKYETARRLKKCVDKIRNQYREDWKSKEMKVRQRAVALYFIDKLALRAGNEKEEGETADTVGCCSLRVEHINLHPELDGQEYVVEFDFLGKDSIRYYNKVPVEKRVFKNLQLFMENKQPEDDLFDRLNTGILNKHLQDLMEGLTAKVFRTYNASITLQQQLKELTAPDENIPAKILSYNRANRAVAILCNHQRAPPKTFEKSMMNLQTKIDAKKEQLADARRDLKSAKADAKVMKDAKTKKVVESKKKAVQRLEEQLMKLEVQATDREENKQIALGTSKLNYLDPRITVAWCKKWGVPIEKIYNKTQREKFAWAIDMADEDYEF
# Method: Because compound 8 binds with free Top1 (Figure 3) and inhibits Top1cc formation in live cells (Figure 2E), we examined the impact of compound 8 on endogenous Top1. Cellular lysates were prepared from MCF7 cells treated with compound 8 for indicated times and were analyzed by Western blotting. […] Because proteasome has been implicated for Top1 degradation,[7],[9],[45] we used proteasome specific inhibitor (MG132) to investigate Top1 proteolysis in compound 8 treated cells.
# Preparation of whole cell extracts from MCF7 cells and immunoblotting were carried out as described.[6],[40],[41] Immunoreactivity was detected using ECL chemiluminescence reaction (Amersham) under ChemiDoc MP system (Bio-Rad, USA).
# [3] = Cell survival (MTT) assay, MEFs (TDP1+/+ and TDP1-/-); assay type: cell-based, mouse; conditions: mouse, read-out: IC50 cytotoxicity
# Description: (§2) Compound 8 was investigated for its cytotoxicity in the cancer cell lines from different tissue origin,[6],[41] as well as in the noncancerous human embryonic kidney cell lines (HEK293) and mouse embryonic fibroblasts (MEFs). […] The MCF7 breast cancer cell lines were most susceptible to compound 8.
# (§3) Human cancerous cell lines like MCF7, HeLa, HCT116, NIH:OVCAR-3, and HEK293 were obtained from the Developmental Therapeutics Program as kind gift from Dr. Yves Pommier (NIH/NCI/USA). TDP1^+/+ and TDP1^–/– primary MEF cells were kind gift from Dr. Cornelius F. Boerkoel (University of British Columbia, Canada) and were cultured as described previously.[6],[36],[40],[42] Plasmid DNAs were transfected with Lipofectamine 2000 (Invitrogen) according to the manufacturer’s protocol.
# as §1
# [4] = test system: mouse embryonic fibroblasts (MEFs); test: as above; assay type: cell-based
# Description: as §2, §3, §1
# [5] = target: T2, Top1-DNA cleavage complexes (Top1cc) (Homo sapiens, UniProt P11387); test: Single turnover equilibrium cleavage assay with 25-mer duplex oligonucleotide; assay type: biochemical
# T2 construct: made in house; host or cells: Sf-9 insect cells (recombinant baculovirus, gift of Prof. James J. Champoux)
# T2 sequence (P11387 1-765): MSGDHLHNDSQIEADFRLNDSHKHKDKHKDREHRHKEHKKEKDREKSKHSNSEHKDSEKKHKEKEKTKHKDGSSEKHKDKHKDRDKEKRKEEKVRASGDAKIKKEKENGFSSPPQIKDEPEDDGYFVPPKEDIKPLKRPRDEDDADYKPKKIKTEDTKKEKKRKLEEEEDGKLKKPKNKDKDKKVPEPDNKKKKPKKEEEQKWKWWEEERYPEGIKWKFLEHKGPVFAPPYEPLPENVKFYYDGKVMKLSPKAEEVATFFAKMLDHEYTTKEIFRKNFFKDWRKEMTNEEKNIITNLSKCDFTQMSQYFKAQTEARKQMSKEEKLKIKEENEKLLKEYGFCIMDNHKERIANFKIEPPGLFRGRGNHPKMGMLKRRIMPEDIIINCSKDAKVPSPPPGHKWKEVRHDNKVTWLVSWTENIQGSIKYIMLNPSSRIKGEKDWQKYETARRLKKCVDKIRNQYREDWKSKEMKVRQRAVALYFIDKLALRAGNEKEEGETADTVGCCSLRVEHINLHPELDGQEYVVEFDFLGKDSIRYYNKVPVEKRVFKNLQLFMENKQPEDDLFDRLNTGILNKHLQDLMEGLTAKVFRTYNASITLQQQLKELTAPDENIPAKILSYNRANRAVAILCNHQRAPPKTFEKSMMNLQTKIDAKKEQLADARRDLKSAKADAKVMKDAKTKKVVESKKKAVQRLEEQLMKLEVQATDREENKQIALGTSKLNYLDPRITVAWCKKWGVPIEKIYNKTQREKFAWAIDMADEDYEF
# Method: Plasmid DNA cleavage assay was carried out as described previously.[6],[8] For equilibrium cleavage assays, 25-mer duplex of oligonucleotide containing a Top1 binding motif was labeled and annealed as described previously.[13],[36],[38] Samples were analyzed by 12% sequencing gel electrophoresis, dried, and exposed on PhosphorImager screens and imaged with Typhoon FLA 7000 (GE Healthcare, U.K.).
smiles,measurement,setting,value
"CN(C)c1ccc(-c2c3nc(c(-c4ccc(N(C)C)cc4)c4ccc([nH]4)c(-c4ccc(C(=O)O)cc4)c4nc(c(-c5ccc(C(=O)O)cc5)c5ccc2[nH]5)C=C4)C=C3)cc1 [Compound 8, 5,10-Bis(4-carboxyphenyl)-15,20-bis(4-dimethylaminophenyl)porphyrin]",Cytotoxicity in Top1 knockdown cells compared to Top1 proficient cells,[1],reduced cytotoxicity
same,Top1 signal in Western blot,[2],time dependent depletion of Top1 signal
same,IC50,"[3]; TDP1+/+ primary mouse embryonic fibroblasts (MEFs), TDP1+/+ MEFs",> 10 µM
same,IC50,"[3]; TDP1-/- primary mouse embryonic fibroblasts (MEFs), TDP1-/- MEFs",> 10 µM
same,IC50,"[3]; mouse embryonic fibroblasts (MEFs), MEFs, noncancerous",> 10 µM
same,Sensitivity of TDP–/– versus TDP1+/+ MEFs cells,[4],equally sensitive
same,Stabilization of Top1cc in single turnover equilibrium cleavage assay,"[5]; 25-mer duplex oligonucleotide, recombinant Top1 0.2 μM",failed to stabilize Top1cc
same,Effect on CPT-induced Top1cc with 12-mer cleaved oligonucleotides,[5]; Top1 incubated with CPT before addition of compound,reversed the CPT-induced Top1cc
